From PubChem BioAssay (NCI)
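Cultured in 96-well plates, cells were exposed to test compound for 48 hours across five concentrations. At the GI50, growth is halved. TGI denotes the concentration required for complete inhibition of growth.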

Tests used:
Assay in all cases: NCI anticancer screen, dose series, 48 h
SK-OV-3 ovarian = test system: SK-OV-3 ovarian
TK-10 renal = test system: TK-10 renal
OVCAR-3 ovarian = test system: OVCAR-3 ovarian
OVCAR-4 ovarian = test system: OVCAR-4 ovarian
OVCAR-5 ovarian = test system: OVCAR-5 ovarian
HCT-15 colon = test system: HCT-15 colon
EKVX NSCLC = test system: EKVX NSCLC
SK-MEL-2 melanoma = test system: SK-MEL-2 melanoma
NCI-H460 lung = test system: NCI-H460 lung
SK-MEL-28 melanoma = test system: SK-MEL-28 melanoma

Structure (SMILES)	TGI (SK-OV-3 ovarian) [µM]	TGI (TK-10 renal) [µM]	TGI (OVCAR-3 ovarian) [µM]	TGI (OVCAR-4 ovarian) [µM]	TGI (OVCAR-5 ovarian) [µM]	TGI (HCT-15 colon) [µM]	TGI (EKVX NSCLC) [µM]	TGI (SK-MEL-2 melanoma) [µM]	TGI (NCI-H460 lung) [µM]	TGI (SK-MEL-28 melanoma) [µM]	GI50 (SK-OV-3 ovarian) [µM]	GI50 (TK-10 renal) [µM]	GI50 (OVCAR-3 ovarian) [µM]	GI50 (OVCAR-4 ovarian) [µM]	GI50 (OVCAR-5 ovarian) [µM]	GI50 (HCT-15 colon) [µM]	GI50 (EKVX NSCLC) [µM]	GI50 (SK-MEL-28 melanoma) [µM]	GI50 (SK-MEL-2 melanoma) [µM]	GI50 (NCI-H460 lung) [µM]
CC(=O)Nc1ccc(S(=O)(=O)N/N=C(\C)CN2C(=O)c3ccccc3C2=O)cc1	> 100	> 100	> 100	> 100	> 100	> 100	> 100	> 100	> 100	–	–	–	–	–	–	–	–	–	–	–
CCCCCC/C=C\CCCCCCCCCc1cccc(OC)c1O	> 100	> 100	–	–	> 100	> 100	> 100	> 100	–	> 100	–	–	–	–	–	–	–	–	–	–
Clc1ccc2c(NCCNc3nc(N4CCCCC4)nc4ccccc34)ccnc2c1	7.64	5.13	3.65	13.8	10.1	3.93	17.2	3.83	–	3.52	2.58	2.15	1.75	2.81	2.68	1.26	4.07	1.86	1.79	–
Fc1cccc(-c2nc(-c3c[nH]c4ncccc34)cs2)c1	94.3	> 100	> 100	–	> 100	> 100	> 100	> 100	> 100	> 100	11.9	25.9	60.5	–	> 100	> 100	2.46	> 100	> 100	6.59
CC1=C(c2ccccc2)CON(c2ccccc2)C1	> 100	–	> 100	> 100	> 100	> 100	> 100	> 100	> 100	86.2	–	–	–	–	–	–	–	–	–	–
COC(=O)CCC(=O)Nc1cc(C)ccc1C	> 100	> 100	> 100	> 100	–	–	> 100	> 100	> 100	> 100	–	–	–	–	–	–	–	–	–	–
CCN(CC)CCOc1ccccc1-n1c(C)ccc1-c1ccccc1	31.4	29.2	30.1	25.7	30.1	28.2	33.6	–	38	29.7	17.3	14.5	15.6	12.2	15.7	12.6	15.8	15.7	–	18.2
CC1=CC[C@@H]2C(=O)C=CC=C[C@H]12.[C-]#[O+].[C-]#[O+].[C-]#[O+].[Fe]	> 100	> 100	> 100	> 100	> 100	> 100	–	> 100	> 100	> 100	> 100	> 100	> 100	> 100	> 100	> 100	–	> 100	> 100	> 100
CN(C)C(=S)/N=C(\N)N(C)C	> 100	> 100	–	> 100	> 100	> 100	> 100	> 100	> 100	> 100	–	–	–	–	–	–	–	–	–	–
CCN1C(=O)N[C@H]2[C@@H]3NC(=O)c4ccc(Cl)n4[C@@H]3C[C@]21O	7.56	12.5	10.3	7.99	–	15.6	6.89	1.21	16.6	3.03	2.07	1.66	0.542	0.571	–	1.66	1.27	0.311	0.301	0.395
OCC(O)C(OC1OC(CO)C(O)C(O)C1O)c1nn(-c2ccc(Cl)cc2)c2nc3cc(Cl)c(Cl)cc3nc12 (stereo not given)	> 100	> 100	> 100	> 100	> 100	> 100	> 100	–	> 100	> 100	–	–	–	–	–	–	–	–	–	–
O=C(/C=C/c1ccco1)N1CCN(Cc2ccccc2)CC1	> 100	> 100	> 100	> 100	> 100	> 100	> 100	–	> 100	> 100	–	–	–	–	–	–	–	–	–	–
O=C1Nc2cc(-c3ccc(O)cc3)ccc2/C1=C/c1ccc[nH]1	–	> 71.9	3.99	> 51.3	> 25	> 35.3	–	> 25.7	–	> 100	–	0.418	0.348	0.302	0.588	0.0451	–	0.402	0.647	–
COc1ccc2c(ccc3oc([N+](=O)[O-])cc32)c1	1.84	0.854	0.57	2.01	4.74	1.53	–	0.292	0.85	0.323	0.231	0.278	0.225	0.422	0.364	0.221	–	0.118	0.107	0.181
COC(=O)c1ccc(N/C=C(/C#N)c2ccsc2)cc1	–	30.7	23.1	–	> 100	> 100	31.4	50.7	> 100	45.6	–	–	–	–	–	–	–	–	–	–
Nc1ncc(-c2ccc3ncnc(N4CCc5cc(F)c(Cl)cc54)c3c2)cc1C(F)(F)F	> 100	–	> 100	27.9	> 100	> 100	–	> 100	> 100	> 100	2.15	–	1.39	1.74	1.23	1.57	–	2.04	2.84	1.39
CC(C)CCCC(C)[C@H]1CCC2C3CC=C4C[C@@H](OC(=O)CC(CC(=O)[O-])C(=O)[O-])CC[C@]4(C)C3CC[C@@]21C.N.N.[Pt+4] (stereo not given in full)	–	> 100	> 100	> 100	–	> 100	> 100	–	> 100	> 100	–	> 100	> 100	> 100	–	> 100	> 100	> 100	–	> 100
